Compound: Cc1cnc(CNC(=O)c2c(=O)c3ccc(N4CCCN(C)CC4)nc3n3c2sc2ccccc23)cn1 [CX-5461] + COc1cc2c(Oc3ccc(NC(=O)C4(C(=O)Nc5ccc(F)cc5)CC4)cc3F)ccnc2cc1OCCCN1CCOCC1 [Foretinib] (partner 0.25 µM)
Test: relative viability (nuclei count vs DMSO), 5 days (fraction); higher = more cells survive
Settings: first compound 0.01 µM
Method in brief: (§1)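 Nuclei were stained with Hoechst during a one-step fixation (final 0.05% Triton X-100, 1% formaldehyde, 1 ug/ml Hoechst) carried out 5 days after dosing, then counted on 4× images. The cells, lung cancer lines in 1536-well plates, had been dosed by pin tool the day after seeding with one drug alone or a fixed anchor-drug dose plus five library-drug doses (not always all listed) in √10 steps. Relative viability is the nuclei count in treated wells divided by that in vehicle wells, and each value is the median of duplicate plates.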

Cell Line | relative viability
NCI-H2170 | 0.964
NCI-H1975 | 0.971
RERF-LC-KJ | 0.893
ABC-1 | 0.909
NCI-H650 | 1.07
PC-3 [JPC-3] | 1.07

Same assay, conditions: first compound 0.03162 µM

Cell Line | relative viability
NCI-H2170 | 1.01
NCI-H1975 | 0.896
RERF-LC-KJ | 0.964
ABC-1 | 0.91
NCI-H650 | 1.02
PC-3 [JPC-3] | 1.06

Same assay, conditions: first compound 0.1 µM

Cell Line | relative viability
NCI-H2170 | 0.944
NCI-H1975 | 1.03
RERF-LC-KJ | 0.998
ABC-1 | 0.651
NCI-H650 | 1.01
PC-3 [JPC-3] | 0.984

Same assay, conditions: first compound 0.3162 µM

Cell Line | relative viability
NCI-H2170 | 1.07
NCI-H1975 | 0.981
RERF-LC-KJ | 0.765
NCI-H650 | 0.977
PC-3 [JPC-3] | 0.986

Same assay, conditions: first compound 1 µM

Cell Line | relative viability
NCI-H2170 | 1
NCI-H1975 | 0.521
RERF-LC-KJ | 0.815
ABC-1 | 0.585
NCI-H650 | 0.932
PC-3 [JPC-3] | 1.01

Compound: Cc1cnc(CNC(=O)c2c(=O)c3ccc(N4CCCN(C)CC4)nc3n3c2sc2ccccc23)cn1 [CX-5461] + NC(=O)Nc1cc(-c2cccc(F)c2)sc1C(=O)N[C@H]1CCCNC1 [AZD7762] (partner 0.2 µM)
Test: as above
Settings: first compound 0.01 µM
Method in brief: as §1

Cell Line | relative viability
NCI-H2170 | 1.09
NCI-H1975 | 0.792
RERF-LC-KJ | 1
ABC-1 | 0.753
NCI-H650 | 1.03
PC-3 [JPC-3] | 0.803

Same assay, conditions: first compound 0.03162 µM

Cell Line | relative viability
NCI-H2170 | 0.92
NCI-H1975 | 0.729
RERF-LC-KJ | 0.897
ABC-1 | 0.777
NCI-H650 | 1.01

Same assay, conditions: first compound 0.1 µM

Cell Line | relative viability
NCI-H2170 | 1.01
NCI-H1975 | 0.737
RERF-LC-KJ | 0.954
ABC-1 | 0.845
NCI-H650 | 0.727
PC-3 [JPC-3] | 0.822

Same assay, conditions: first compound 0.3162 µM

Cell Line | relative viability
NCI-H2170 | 0.917
NCI-H1975 | 0.847
RERF-LC-KJ | 0.807
NCI-H650 | 1.05
PC-3 [JPC-3] | 0.865

Same assay, conditions: first compound 1 µM

Cell Line | relative viability
NCI-H2170 | 0.504
NCI-H1975 | 0.425
RERF-LC-KJ | 0.901
ABC-1 | 0.608
NCI-H650 | 0.623
PC-3 [JPC-3] | 0.759

Compound: Cc1cnc(CNC(=O)c2c(=O)c3ccc(N4CCCN(C)CC4)nc3n3c2sc2ccccc23)cn1 [CX-5461] + Cc1cc(Nc2cc(N3CCN(C)CC3)nc(Sc3ccc(NC(=O)C4CC4)cc3)n2)n[nH]1 [Tozasertib] (partner 0.1 µM)
Test: as above
Settings: first compound 0.01 µM
Method in brief: as §1

Cell Line | relative viability
NCI-H2170 | 0.781
NCI-H1975 | 0.744
RERF-LC-KJ | 0.449
ABC-1 | 0.15
NCI-H650 | 0.735
PC-3 [JPC-3] | 0.899

Same assay, conditions: first compound 0.03162 µM

Cell Line | relative viability
NCI-H2170 | 0.768
NCI-H1975 | 0.815
RERF-LC-KJ | 0.516
ABC-1 | 0.194
NCI-H650 | 0.815
PC-3 [JPC-3] | 0.947

Same assay, conditions: first compound 0.1 µM

Cell Line | relative viability
NCI-H2170 | 0.727
NCI-H1975 | 0.577
RERF-LC-KJ | 0.287
ABC-1 | 0.188
NCI-H650 | 0.715
PC-3 [JPC-3] | 0.851

Same assay, conditions: first compound 0.3162 µM

Cell Line | relative viability
NCI-H2170 | 0.581
NCI-H1975 | 0.744
RERF-LC-KJ | 0.509
NCI-H650 | 0.324
PC-3 [JPC-3] | 0.792

Same assay, conditions: first compound 1 µM

Cell Line | relative viability
NCI-H2170 | 0.637
NCI-H1975 | 0.211
RERF-LC-KJ | 0.245
ABC-1 | 0.186
NCI-H650 | 0.54
PC-3 [JPC-3] | 0.847

Compound: O=C(Nc1cc(C(F)(F)F)cc(C(F)(F)F)c1)c1cc(Cl)ccc1O [IMD-0354] + Cc1nc(NC(=O)N2CCC[C@H]2C(N)=O)sc1-c1ccnc(C(C)(C)C(F)(F)F)c1 [Alpelisib] (partner 2 µM)
Test: as above
Settings: first compound 0.04 µM
Method in brief: as §1

Cell Line | relative viability
NCI-H2170 | 0.752
NCI-H1975 | 0.799
RERF-LC-KJ | 0.823
ABC-1 | 1.15
NCI-H650 | 1.03
PC-3 [JPC-3] | 1.1

Same assay, conditions: first compound 0.1265 µM

Cell Line | relative viability
NCI-H2170 | 0.785
NCI-H1975 | 0.679
RERF-LC-KJ | 0.71
ABC-1 | 1.1
NCI-H650 | 1.07
PC-3 [JPC-3] | 1.04

Same assay, conditions: first compound 0.4 µM

Cell Line | relative viability
NCI-H2170 | 0.603
NCI-H1975 | 0.36
RERF-LC-KJ | 0.586
ABC-1 | 0.887
NCI-H650 | 0.943
PC-3 [JPC-3] | 0.714

Same assay, conditions: first compound 1.265 µM

Cell Line | relative viability
NCI-H2170 | 0.835
NCI-H1975 | 0.167
RERF-LC-KJ | 0.404
ABC-1 | 0.375
NCI-H650 | 0.615
PC-3 [JPC-3] | 0.774

Same assay, conditions: first compound 4 µM

Cell Line | relative viability
NCI-H2170 | 0.373
NCI-H1975 | 0.204
RERF-LC-KJ | 0.303
ABC-1 | 0.252
NCI-H650 | 0.215
PC-3 [JPC-3] | 0.183

From the supplement of paper PMC10307832
